Where two headings read alike, the source gives them in different places.
Legend:
[1] = test system: NCI-60 cancer cell lines; test: NCI-60 cancer cell line drug screen (GI50, MGM); format: cell-based, human; details: Homo sapiens; for GI50: read-out: Antiproliferative Activities [GI50 (μM)]
Protocol: Cancer cells were incubated with the test compounds at five concentrations ranging from 100 μM to 10 nM for 48 h. […] The approximate average of GI50 values across the entire panel of NCI-60 cancer cell lines for each compound was recorded as the MGM value.

[2] = biological target: T1, human topoisomerase I (Homo sapiens, UniProt P11387); details: relative topoisomerase I inhibition levels, previously determined, six levels (0 - 5, +++++ = 5); cited from earlier work
T1 sequence (P11387 1-765): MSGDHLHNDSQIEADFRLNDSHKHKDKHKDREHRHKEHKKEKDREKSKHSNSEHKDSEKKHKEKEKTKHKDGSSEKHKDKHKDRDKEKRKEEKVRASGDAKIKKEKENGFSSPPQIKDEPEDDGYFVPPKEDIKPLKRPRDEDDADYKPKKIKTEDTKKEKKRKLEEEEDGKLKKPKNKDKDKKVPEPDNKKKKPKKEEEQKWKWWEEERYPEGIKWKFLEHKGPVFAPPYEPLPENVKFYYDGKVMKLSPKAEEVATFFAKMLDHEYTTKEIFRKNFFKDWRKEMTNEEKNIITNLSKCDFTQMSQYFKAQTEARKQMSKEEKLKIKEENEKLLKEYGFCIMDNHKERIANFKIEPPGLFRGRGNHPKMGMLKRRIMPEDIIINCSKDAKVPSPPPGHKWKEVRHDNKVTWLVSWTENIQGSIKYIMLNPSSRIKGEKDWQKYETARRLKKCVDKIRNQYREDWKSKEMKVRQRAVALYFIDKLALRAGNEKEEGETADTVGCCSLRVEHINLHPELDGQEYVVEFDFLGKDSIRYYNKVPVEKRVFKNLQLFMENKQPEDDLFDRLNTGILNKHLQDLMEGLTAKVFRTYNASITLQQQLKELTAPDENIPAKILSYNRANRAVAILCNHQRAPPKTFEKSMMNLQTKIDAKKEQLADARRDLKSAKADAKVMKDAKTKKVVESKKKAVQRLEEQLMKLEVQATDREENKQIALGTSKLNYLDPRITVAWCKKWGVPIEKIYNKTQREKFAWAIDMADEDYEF

[3] = test system: MYC protein expression in MCF-7 breast cancer cells; test: Western blotting of MYC protein level in MCF-7 cells; format: cell-based, human; details: Homo sapiens, MCF7; western blotting, MCF-7 cells, 0.5, 1, 2, and 4 μM, 24 hours; read-out: MYC Inhibition
Outline: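 MCF-7 cells were exposed to compounds at 0.5, 1, 2 and 4 μM for 24 hours at 37° C. MYC was detected by immunoblot with ECL, using rabbit anti-MYC (1:1000) and anti-GAPDH (1:2000) as loading control.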

## CN(C)CCCn1c2c(c3ccc(N4CCNCC4)cc3c1=O)C(=O)c1ccccc1-2 [Compound 25]
[1]; 786-0, Renal Cancer, 786-0
  GI50: 1.34 µM
[1]; A549, Non-Small Cell Lung Cancer, A549/ATCC
  GI50: 0.22 µM
[1]; ACHN, Renal Cancer, ACHN
  GI50: 0.39 µM
[1]; BT-549, Breast Cancer, BT-549
  GI50: 1.27 µM
[1]; CAKI-1, Renal Cancer, CAKI-1
  GI50: 1.05 µM
[1]; CCRF-CEM, Leukemia, CCRF-CEM
  GI50: 0.34 µM
[1]; COLO 205, Colon Cancer, COLO 205
  GI50: 0.62 µM
[1]; DU-145, Prostate Cancer, DU-145
  GI50: 0.33 µM
[1]; EKVX, Non-Small Cell Lung Cancer, EKVX
  GI50: 1.18 µM
[1]; HCC 2998, Colon Cancer, HCC-2998
  GI50: 0.35 µM
[1]; HCT-15, Colon Cancer, HCT-15
  GI50: 0.73 µM
[1]; HL-60, Leukemia, HL-60(TB)
  GI50: 1.17 µM
[1]; HOP-62, Non-Small Cell Lung Cancer, HOP-62
  GI50: 1.06 µM
[1]; HOP-92, Non-Small Cell Lung Cancer, HOP-92
  GI50: 1.72 µM
[1]; HT-29, Colon Cancer, HT29
  GI50: 0.35 µM
[1]; Hs-578T, Breast Cancer, HS 578T
  GI50: 1.44 µM
[1]; IGROV-1, Ovarian Cancer, IGROV1
  GI50: 0.84 µM
[1]; K562, Leukemia, K-562
  GI50: 0.83 µM
[1]; KM12, Colon Cancer, KM12
  GI50: 1.13 µM
[1]; LOX IMVI, Melanoma, LOX IMVI
  GI50: 0.15 µM
[1]; Leukemia, SR
  GI50: 0.31 µM
[1]; MCF7, Breast Cancer, MCF7
  GI50: 0.3 µM
[1]; MDA-MB-231, Breast Cancer, MDA-MB-231/ATCC
  GI50: 0.51 µM
[1]; MDA-MB-435, Melanoma, MDA-MB-435
  GI50: 1.2 µM
[1]; MDA-MB-468, Breast Cancer, MDA-MB-468
  GI50: 0.95 µM
[1]; MOLT-4, Leukemia, MOLT-4
  GI50: 0.1 µM
[1]; Malme-3M, Melanoma, MALME-3M
  GI50: 1.42 µM
[1]; Melanoma, M14
  GI50: 1.05 µM
[1]; NCI-H23, Non-Small Cell Lung Cancer, NCI-H23
  GI50: 1.05 µM
[1]; NCI-H226, Non-Small Cell Lung Cancer, NCI-H226
  GI50: 0.56 µM
[1]; NCI-H322M, Non-Small Cell Lung Cancer, NCI-H322M
  GI50: 0.45 µM
[1]; NCI-H460, Non-Small Cell Lung Cancer, NCI-H460
  GI50: 0.31 µM
[1]; NCI-H522, Non-Small Cell Lung Cancer, NCI-H522
  GI50: 0.96 µM
[1]; OVCAR-3, Ovarian Cancer, OVCAR-3
  GI50: 1.05 µM
[1]; OVCAR-4, Ovarian Cancer, OVCAR-4
  GI50: 0.34 µM
[1]; OVCAR-5, Ovarian Cancer, OVCAR-5
  GI50: 2.12 µM
[1]; OVCAR-8, Ovarian Cancer, OVCAR-8
  GI50: 0.4 µM
[1]; Ovarian Cancer, NCl/ADR-RES
  GI50: 1.16 µM
[1]; Prostate Cancer, PC-3
  GI50: 0.86 µM
[1]; RPMI-8226, Leukemia, RPMI-8226
  GI50: 0.27 µM
[1]; RXF 393, Renal Cancer, RXF 393
  GI50: 1.29 µM
[1]; Renal Cancer, U0-31
  GI50: 0.77 µM
[1]; SF-268, CNS Cancer, SF-268
  GI50: 0.95 µM
[1]; SF-295, CNS Cancer, SF-295
  GI50: 1.16 µM
[1]; SF-539, CNS Cancer, SF-539
  GI50: 1.61 µM
[1]; SK-MEL-2, Melanoma, SK-MEL-2
  GI50: 1.71 µM
[1]; SK-MEL-5, Melanoma, SK-MEL-5
  GI50: 0.7 µM
[1]; SK-MEL-28, Melanoma, SK-MEL-28
  GI50: 1.53 µM
[1]; SK-OV-3, Ovarian Cancer, SK-OV-3
  GI50: 1.05 µM
[1]; SN12C, Renal Cancer, SN12C
  GI50: 0.33 µM
[1]; SNB-19, CNS Cancer, SNB-19
  GI50: 0.54 µM
[1]; SNB-75, CNS Cancer, SNB-75
  GI50: 0.95 µM
[1]; SW-620, Colon Cancer, SW-620
  GI50: 0.16 µM
[1]; T47D, Breast Cancer, T-47D
  GI50: 1.55 µM
[1]; TK-10, Renal Cancer, TK-10
  GI50: 1.33 µM
[1]; U-251, CNS Cancer, U251
  GI50: 0.64 µM
[1]; UACC-62, Melanoma, UACC-62
  GI50: 1.03 µM
[1]; UACC-257, Melanoma, UACC-257
  GI50: 1.69 µM
[1]; average of GI50 values across the entire panel of NCI-60 cancer cell lines
  mean GI50 across NCI-60 panel (MGM): 720 nM
[2]
  Top1 Inhibiton: ++ (medium inhibition, ++, MYC expression inhibited at 2.0 μM, or no clear dose-dependent MYC inhibition)
[3]
  minimal effective concentration: > 4 µM

— US20210382058A1, “PATIENT SELECTION FOR TREATMENT OF MYC POSITIVE CANCERS WITH INDENOISOQUINOLINES” (Purdue Research Foundation, priority 2020, published 2021)
